Experimental data taken from patent US8030446B2, “Mutant proline-and-arginine rich peptides and methods for using the same” (Trustees of Dartmouth College, priority 2006, dated 2011).
Where two headings read alike, the source gives them in different places. Marks after values point to notes of the source that are not given here. Ends that are not written are not given here.

Columns and labels:
[1] = target: T1, Mammalian (Human) 20s Proteasome (Homo sapiens, UniProt P25788); experiment: Chymotrypsin-like (ChT-L) peptidase activity of 20S proteasome, N-succinyl-LLVY-AMC substrate; format: biochemical; details: chymotrypsin-like activity; for IC50: 15-minute pre-incubation, 1 hour at 37° C., pH 7.5, 0.03% SDS, read-out: I50
T1 construct: purchased Boston Biochem (Cambridge, Mass.)
Protocol: Determination of Enzymatic Activity. Mammalian (Human) 20s Proteasome was purchased from Boston Biochem (Cambridge, Mass.); substrate, N-succinyl-LLVY-AMC was purchased from SIGMA (St. Louis, Mo.); and negative control, Lactacystin, was purchased from SIGMA. […] Activity was determined by measuring the amount of a fluorescence observed upon release of the MCA group after a 1 hour incubation at 37° C. in 50 mM sodium phosphate buffer at pH 7.5 containing 0.03% SDS. Inhibition by PR-peptide was measured after a 15-minute pre-incubation at 37° C. of each peptide with 20S proteasome, followed by the addition of the substrate and the one hour incubation.

[2] = system: genes regulating the NF-κB pathway in human umbilical vein endothelial cells (HUVEC); experiment: NF-κB pathway-specific gene expression microarray in HUVEC treated with PR peptides; format: cell-based; details: for overall inhibitory effect on NF-κB pathway-related gene expression (in words): FIG. 1, averaged % inhibition over 13 down-regulated genes, relative to PR11; for AKT1 gene expression / ATF2 gene expression / CREB1 gene expression / ELK3 gene expression / JNK1 gene expression / MEK4 gene expression / MEKK1 gene expression / MEKK2 gene expression / NF-κB1 gene expression / NF-κB2 gene expression / P38 MAPK gene expression / RANK gene expression / RIP gene expression / TAK1 gene expression / TBK1 gene expression / TRAF6 gene expression: PR peptides 1 μM, 8 hours, relative to untreated controls
Protocol: Cell Culture. Human umbilical vein endothelial cells (HUVEC, Cambrex Bio Science Walkersville, Inc., East Rutherford, N.J.) were cultured in endothelial cell basal medium-2 supplemented with EGM-2 SINGLEQUOTS (Cambrex Bio Science Walkersville, Inc.) and FBS. Confluent HUVEC, passage 3-5, were starved overnight in medium supplemented with 0.5% FBS, 0.25% BSA and incubated with PR peptides (1 μM) for 8 hours in starvation medium.
Total RNA Extraction and Gene Profiling by Microarray. Total RNA extraction was performed using the RNEASY mini kit protocol (QIAGEN, Valencia, Calif.). The quality and quantity of total RNA was determined using RNA 6000 Nano chips (Agilent Technology, Santa Clara, Calif.).
Gene profiling was performed using pathway-specific gene expression array for NF-κB signaling transduction (HS-016.2, SuperArray Bioscience Corp.). A total of 96 cDNA fragments from genes related to NF-κB mediated signal transduction, including: NF-κB/IκB family, NF-κB responsive genes (adhesion molecules, cytokines), extracellular ligands, transmembrane receptors, adaptor proteins, signal transduction kinases, and transcription factors were printed in tetraspot format on 3.8×4.8 cm nylon array membrane. Total RNA (0.5 μg) was reverse-transcribed into cDNA labeled with biotin-dUTP according to the manufacture's protocol. After overnight hybridization at 60° C., array membranes were treated with alkaline phosphate-conjugated streptavidin followed by chemiluminescent alkaline phosphate substrate CDP-star (Applied Biosystems, Foster City, Calif.) and exposed to X-ray film. The data were extracted from raw images using […] software (SuperArray, Bioscience Corp.). After background subtraction, the level of gene expression was determined as signal intensity units relative to total array intensity signal. Statistical significant altered genes (PR peptides vs. control) at P values <0.05 were analyzed by Student's t-test, 2-tailed distribution. The data were expressed as fold change PR peptides relative to controls (untreated cells kept in similar conditions).

[3] = target: T1, Mammalian (Human) 20s Proteasome; details: Gaczynska, et al. (2003); cited from earlier work

| Sequence | IC50 [1] [µM] | overall inhibitory effect on NF-κB pathway-related gene expression (in words) [2] | AKT1 gene expression ([2]; HUVEC) | ATF2 gene expression ([2]; HUVEC) | CREB1 gene expression ([2]; HUVEC) | ELK3 gene expression ([2]; HUVEC) | JNK1 gene expression ([2]; HUVEC) | MEK4 gene expression ([2]; HUVEC) | MEKK1 gene expression ([2]; HUVEC) | MEKK2 gene expression ([2]; HUVEC) | NF-κB1 gene expression ([2]; HUVEC) | NF-κB2 gene expression ([2]; HUVEC) | P38 MAPK gene expression ([2]; HUVEC) | RANK gene expression ([2]; HUVEC) | RIP gene expression ([2]; HUVEC) | TAK1 gene expression ([2]; HUVEC) | TBK1 gene expression ([2]; HUVEC) | TRAF6 gene expression ([2]; HUVEC) | 20S proteasome inhibiting activity (in words) [1] | further results |
| --- | --- | --- | --- | --- | --- | --- | --- | --- | --- | --- | --- | --- | --- | --- | --- | --- | --- | --- | --- | --- |
| RRRPRPPELPR [Peptide E8] | 2.37 | reduced activity compared with PR11 or Trp12 | 0.8 fold change | −1.6* fold change | −1.9 fold change | ^−1.8^# fold change | −1.2 fold change | −1.2 fold change | −1.0 fold change | −1.3 fold change | −1.7 fold change | −1.4 fold change | −1.5 fold change | 1.5 fold change | −3.6* fold change | −1.7* fold change | −2.3^# fold change | −1.2 fold change | – | – |
| RRRPRPPELPRW [Peptide E8W12] | 2.61 | reduced activity compared with PR11 or Trp12 | 1.8* fold change | −1.8* fold change | −1.5 fold change | 1.0 fold change | −1.8 fold change | −2.4* fold change | −1.7 fold change | −1.1 fold change | −1.6 fold change | −1.3 fold change | −1.1 fold change | 1.8^# fold change | −1.5 fold change | −1.2 fold change | −1.6* fold change | −1.2 fold change | behaved much the same as the Glu8 mutant | – |
| RRRPRPPY [PR8] | – | – | – | – | – | – | – | – | – | – | – | – | – | – | – | – | – | – | – | 20S proteasome inhibiting activity (in words) [3]: does not inhibit 20S activity |
| RRRPRPPYLPR [PR11, reference compound] | 0.805 | – | 3.0* fold change | −2.1* fold change | −2.1* fold change | 1.9* fold change | −6.5^# fold change | −3.1* fold change | −2.9* fold change | −2.6* fold change | −4.1* fold change | −3.3^# fold change | −3.6^# fold change | 1.5* fold change | −10.4^# fold change | −9.2^# fold change | −2.8^# fold change | −2.4* fold change | – | number of genes whose expression was significantly affected ([2]; HUVEC, NF-κB array of 96 genes): 16 genes |
| RRRPRPPYLPRW [Peptide W12] | – | – | 2.5^# fold change | −2.7^# fold change | −1.6 fold change | 1.3^# fold change | −5.3* fold change | −4.0^# fold change | −4.6* fold change | −2.4^# fold change | −2.6 fold change | −1.9* fold change | −2.5^# fold change | 2.1^# fold change | −5.5* fold change | −2.0^# fold change | −4.7^# fold change | −3.1* fold change | did not noticeably alter PR11 activity | – |
